Active and inactive are the calls of the source. No cut-off for these calls is given here.
Test system: Botrytis cinerea
Assay: Antifungal activity against Botrytis cinerea assessed as inhibition of radical growth by poisoned-food technique
Assay type: functional, organism-based

CO[C@H]1CC(C)(C)[C@@H]2CC[C@@]3(C)C[C@]12CC[C@H]3O
Activity: Active

From ChEMBL document CHEMBL1151305, “The biotransformation of some clovanes by botrytis cinerea” (J Nat Prod, 1998)
